Assay results reported in patent US12252524B2, “GIP/GLP1 co-agonist compounds” (Eli Lilly and Company, priority 2018, dated 2025).
Numbered stars: 1 amine (or outer) side, 2 acyl side, 3 side chain; on linkers, the order of the positions; unused ones are H or OH. Square brackets hold non-standard residues; d marks the D form. Side chains are listed from the residue outwards. Peptide text beside a SMILES is read from it. * marks the point of attachment. C20 diacid = O=C(O)CCCCCCCCCCCCCCCCCCC(=O)*; γGlu = O=C(O)[C@H](CCC(=O)[*:2])N[*:1]; αMeF = C[C@](N)(Cc1ccccc1)C(=O)O; αMeL = CC(C)C[C@](C)(N)C(=O)O; AEEA = NCCOCCOCC(=O)O; Aib = CC(C)(N)C(=O)O

Tests used:
[1] = target: human GLP-1 receptor (GLP-1R) (Homo sapiens, UniProt P43220); test: cAMP pharmacological functional assay in presence of casein, hGLP-1R; type: cell-based; conditions: HEK293 cells expressing hGLP-1R, 0.1% Casein, geometric mean; read-out: hGLP1R cAMP Rel EC50 nM (SEM, n)
[2] = target: T1, gastric inhibitory peptide receptor (GIPR) (Homo sapiens, UniProt P48546); test: cAMP pharmacological functional assay in presence of casein, hGIPR; type: cell-based; conditions: HEK293 cells expressing hGIPR, 0.1% Casein, geometric mean; read-out: hGIPR cAMP Rel EC50 nM (SEM, n)
T1 sequence (P48546 22-466): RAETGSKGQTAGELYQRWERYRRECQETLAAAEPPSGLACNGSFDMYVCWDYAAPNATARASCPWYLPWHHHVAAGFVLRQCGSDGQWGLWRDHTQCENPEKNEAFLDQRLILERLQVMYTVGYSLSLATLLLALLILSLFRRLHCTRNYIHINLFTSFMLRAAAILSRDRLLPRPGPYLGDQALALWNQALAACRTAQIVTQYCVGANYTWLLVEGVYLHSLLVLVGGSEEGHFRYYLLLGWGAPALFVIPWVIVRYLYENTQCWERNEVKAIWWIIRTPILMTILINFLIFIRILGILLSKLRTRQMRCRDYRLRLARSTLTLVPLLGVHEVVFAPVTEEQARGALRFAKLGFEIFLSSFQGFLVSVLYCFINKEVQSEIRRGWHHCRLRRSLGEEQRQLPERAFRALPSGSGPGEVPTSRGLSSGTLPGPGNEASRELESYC

Sequence of human GLP-1 receptor (GLP-1R) (P43220 24-463): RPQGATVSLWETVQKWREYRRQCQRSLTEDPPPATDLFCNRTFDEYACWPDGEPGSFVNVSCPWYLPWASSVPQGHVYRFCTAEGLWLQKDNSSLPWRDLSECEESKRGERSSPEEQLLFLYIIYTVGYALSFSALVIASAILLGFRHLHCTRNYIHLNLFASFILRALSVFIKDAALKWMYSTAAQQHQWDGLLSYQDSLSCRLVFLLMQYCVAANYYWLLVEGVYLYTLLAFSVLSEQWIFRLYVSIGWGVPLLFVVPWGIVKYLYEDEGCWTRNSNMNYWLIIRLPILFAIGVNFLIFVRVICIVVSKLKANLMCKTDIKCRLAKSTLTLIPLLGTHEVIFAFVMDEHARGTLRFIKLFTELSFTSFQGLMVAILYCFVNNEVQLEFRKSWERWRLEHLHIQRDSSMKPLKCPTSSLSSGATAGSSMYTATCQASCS

SMILES | EC50 [1] [nM] | EC50 [2] [nM]
CC[C@H](C)[C@H](NC(=O)[C@H](CCCCN)NC(=O)[C@H](CC(C)C)NC(=O)[C@H](CC(C)C)NC(=O)[C@@H](NC(=O)[C@H](CO)NC(=O)[C@H](Cc1ccc(O)cc1)NC(=O)[C@H](CC(=O)O)NC(=O)[C@H](CO)NC(=O)[C@@H](NC(=O)[C@H](Cc1ccccc1)NC(=O)[C@@H](NC(=O)CNC(=O)[C@H](CCC(=O)O)NC(=O)C(C)(C)NC(=O)[C@@H](N)Cc1ccc(O)cc1)[C@@H](C)O)[C@@H](C)O)[C@@H](C)CC)C(=O)N[C@@H](C)C(=O)N[C@@H](CCC(N)=O)C(=O)NC(C)(C)C(=O)N[C@@H](C)C(=O)N[C@@H](Cc1ccccc1)C(=O)N[C@H](C(=O)N[C@@H](CCC(=O)O)C(=O)N[C@@H](Cc1ccc(O)cc1)C(=O)N[C@@H](CC(C)C)C(=O)N[C@H](C(=O)N[C@@H](CCC(=O)O)C(=O)NCC(=O)NCC(=O)N1CCC[C@H]1C(=O)N[C@@H](CO)C(=O)N[C@@H](CO)C(=O)NCC(=O)N[C@@H](C)C(=O)N1CCC[C@H]1C(=O)N1CCC[C@H]1C(=O)N[C@@H](CCCCNC(=O)COCCOCCNC(=O)COCCOCCNC(=O)CC[C@H](NC(=O)CCCCCCCCCCCCCCCCCCC(=O)O)C(=O)O)C(=O)N[C@@H](CO)C(N)=O)[C@@H](C)CC)[C@@H](C)CC [Example 77] (H-Y[Aib]EGTFTSDYSILLKIAQ[Aib]AFIEYLIEGGPSSGAPPK([AEEA-AEEA-γGlu-C20 diacid])S-NH2) | > 2000 | 135
CC[C@H](C)[C@H](NC(=O)[C@H](CCCCN)NC(=O)[C@H](CC(=O)O)NC(=O)[C@H](CC(C)C)NC(=O)[C@H](CC(C)C)NC(=O)[C@@H](NC(=O)[C@H](CO)NC(=O)[C@H](CCCCNC(=O)COCCOCCNC(=O)COCCOCCNC(=O)CC[C@H](NC(=O)CCCCCCCCCCCCCCCCCCC(=O)O)C(=O)O)NC(=O)[C@H](CC(=O)O)NC(=O)[C@H](CO)NC(=O)[C@@H](NC(=O)[C@](C)(Cc1ccccc1)NC(=O)[C@@H](NC(=O)CNC(=O)[C@H](CCC(=O)O)NC(=O)C(C)(C)NC(=O)[C@@H](N)Cc1ccc(O)cc1)[C@@H](C)O)[C@@H](C)O)[C@@H](C)CC)C(=O)N[C@@H](C)C(=O)N[C@@H](CCC(N)=O)C(=O)NC(C)(C)C(=O)N[C@@H](C)C(=O)N[C@@H](Cc1ccccc1)C(=O)N[C@H](C(=O)N[C@@H](CCC(=O)O)C(=O)N[C@@H](Cc1ccc(O)cc1)C(=O)N[C@@H](CC(C)C)C(=O)N[C@H](C(=O)N[C@@H](CCC(=O)O)C(=O)NCC(=O)NCC(N)=O)[C@@H](C)CC)[C@@H](C)CC [Example 92] (H-Y[Aib]EGT[αMeF]TSDK([AEEA-AEEA-γGlu-C20 diacid])SILLDKIAQ[Aib]AFIEYLIEGG-NH2) | 0.257 | 0.338
CC[C@H](C)[C@H](NC(=O)[C@H](CCCCN)NC(=O)[C@H](CC(=O)O)NC(=O)[C@H](CC(C)C)NC(=O)[C@H](CC(C)C)NC(=O)[C@@H](NC(=O)[C@H](CO)NC(=O)[C@H](Cc1ccc(O)cc1)NC(=O)[C@H](CC(=O)O)NC(=O)[C@H](CO)NC(=O)[C@@H](NC(=O)[C@](C)(Cc1ccccc1)NC(=O)[C@@H](NC(=O)CNC(=O)[C@H](CCC(=O)O)NC(=O)C(C)(C)NC(=O)[C@@H](N)Cc1ccc(O)cc1)[C@@H](C)O)[C@@H](C)O)[C@@H](C)CC)C(=O)N[C@@H](C)C(=O)N[C@@H](CCC(N)=O)C(=O)NC(C)(C)C(=O)N[C@@H](CCCCNC(=O)COCCOCCNC(=O)COCCOCCNC(=O)CC[C@H](NC(=O)CCCCCCCCCCCCCCCCCCC(=O)O)C(=O)O)C(=O)N[C@@H](Cc1ccccc1)C(=O)N[C@H](C(=O)N[C@@H](CCC(=O)O)C(=O)N[C@@H](Cc1ccc(O)cc1)C(=O)N[C@@H](CC(C)C)C(=O)N[C@H](C(=O)N[C@@H](CCC(=O)O)C(=O)NCC(=O)NCC(N)=O)[C@@H](C)CC)[C@@H](C)CC [Example 94] (H-Y[Aib]EGT[αMeF]TSDYSILLDKIAQ[Aib]K([AEEA-AEEA-γGlu-C20 diacid])FIEYLIEGG-NH2) | 0.338 | 0.425
CC[C@H](C)[C@H](NC(=O)[C@H](CCCCN)NC(=O)[C@H](CC(=O)O)NC(=O)[C@H](CC(C)C)NC(=O)[C@H](CC(C)C)NC(=O)[C@@H](NC(=O)[C@H](CO)NC(=O)[C@H](Cc1ccc(O)cc1)NC(=O)[C@H](CC(=O)O)NC(=O)[C@H](CO)NC(=O)[C@@H](NC(=O)[C@](C)(Cc1ccccc1)NC(=O)[C@@H](NC(=O)CNC(=O)[C@H](CCC(=O)O)NC(=O)C(C)(C)NC(=O)[C@@H](N)Cc1ccc(O)cc1)[C@@H](C)O)[C@@H](C)O)[C@@H](C)CC)C(=O)N[C@@H](C)C(=O)N[C@@H](CCC(N)=O)C(=O)NC(C)(C)C(=O)N[C@@H](C)C(=O)N[C@@H](Cc1ccccc1)C(=O)N[C@H](C(=O)N[C@@H](CCC(=O)O)C(=O)N[C@@H](Cc1ccc(O)cc1)C(=O)N[C@@H](CC(C)C)C(=O)N[C@H](C(=O)N[C@@H](CCCCNC(=O)COCCOCCNC(=O)COCCOCCNC(=O)CC[C@H](NC(=O)CCCCCCCCCCCCCCCCCCC(=O)O)C(=O)O)C(=O)NCC(=O)NCC(N)=O)[C@@H](C)CC)[C@@H](C)CC [Example 95] (H-Y[Aib]EGT[αMeF]TSDYSILLDKIAQ[Aib]AFIEYLIK([AEEA-AEEA-γGlu-C20 diacid])GG-NH2) | 1.01 | 1.17
CC[C@H](C)[C@H](NC(=O)[C@H](CCCCN)NC(=O)[C@H](CC(=O)O)NC(=O)[C@H](CC(C)C)NC(=O)[C@](C)(CC(C)C)NC(=O)[C@@H](NC(=O)[C@H](CO)NC(=O)[C@H](CCCCNC(=O)COCCOCCNC(=O)COCCOCCNC(=O)CC[C@H](NC(=O)CCCCCCCCCCCCCCCCCCC(=O)O)C(=O)O)NC(=O)[C@H](CC(=O)O)NC(=O)[C@H](CO)NC(=O)[C@@H](NC(=O)[C@H](Cc1ccccc1)NC(=O)[C@@H](NC(=O)CNC(=O)[C@H](CCC(=O)O)NC(=O)C(C)(C)NC(=O)[C@@H](N)Cc1ccc(O)cc1)[C@@H](C)O)[C@@H](C)O)[C@@H](C)CC)C(=O)N[C@@H](C)C(=O)N[C@@H](CCC(N)=O)C(=O)NC(C)(C)C(=O)N[C@@H](C)C(=O)N[C@@H](Cc1ccccc1)C(=O)N[C@H](C(=O)N[C@@H](CCC(=O)O)C(=O)N[C@@H](Cc1ccc(O)cc1)C(=O)N[C@@H](CC(C)C)C(=O)N[C@H](C(=O)N[C@@H](CCC(=O)O)C(=O)NCC(=O)NCC(N)=O)[C@@H](C)CC)[C@@H](C)CC [Example 96] (H-Y[Aib]EGTFTSDK([AEEA-AEEA-γGlu-C20 diacid])SI[αMeL]LDKIAQ[Aib]AFIEYLIEGG-NH2) | 0.59 | 0.712
CC[C@H](C)[C@H](NC(=O)[C@H](CCCCN)NC(=O)[C@H](CC(=O)O)NC(=O)[C@H](CC(C)C)NC(=O)[C@](C)(CC(C)C)NC(=O)[C@@H](NC(=O)[C@H](CO)NC(=O)[C@H](Cc1ccc(O)cc1)NC(=O)[C@H](CC(=O)O)NC(=O)[C@H](CO)NC(=O)[C@@H](NC(=O)[C@H](Cc1ccccc1)NC(=O)[C@@H](NC(=O)CNC(=O)[C@H](CCC(=O)O)NC(=O)C(C)(C)NC(=O)[C@@H](N)Cc1ccc(O)cc1)[C@@H](C)O)[C@@H](C)O)[C@@H](C)CC)C(=O)N[C@@H](C)C(=O)N[C@@H](CCC(N)=O)C(=O)NC(C)(C)C(=O)N[C@@H](C)C(=O)N[C@@H](Cc1ccccc1)C(=O)N[C@H](C(=O)N[C@@H](CCC(=O)O)C(=O)N[C@@H](Cc1ccc(O)cc1)C(=O)N[C@@H](CC(C)C)C(=O)N[C@H](C(=O)N[C@@H](CCCCNC(=O)COCCOCCNC(=O)COCCOCCNC(=O)CC[C@H](NC(=O)CCCCCCCCCCCCCCCCCCC(=O)O)C(=O)O)C(=O)NCC(=O)NCC(N)=O)[C@@H](C)CC)[C@@H](C)CC [Example 97] (H-Y[Aib]EGTFTSDYSI[αMeL]LDKIAQ[Aib]AFIEYLIK([AEEA-AEEA-γGlu-C20 diacid])GG-NH2) | 2.18 | 1.85
CC[C@H](C)[C@H](NC(=O)[C@H](CC(C)C)NC(=O)[C@H](Cc1ccc(O)cc1)NC(=O)[C@H](CCC(=O)O)NC(=O)[C@@H](NC(=O)[C@H](Cc1ccccc1)NC(=O)[C@H](C)NC(=O)C(C)(C)NC(=O)[C@H](CCC(N)=O)NC(=O)[C@H](C)NC(=O)[C@H](CCCCNC(=O)COCCOCCNC(=O)COCCOCCNC(=O)CC[C@H](NC(=O)CCCCCCCCCCCCCCCCCCC(=O)O)C(=O)O)NC(=O)[C@H](CCCCN)NC(=O)[C@H](CC(=O)O)NC(=O)[C@H](CC(C)C)NC(=O)[C@H](CC(C)C)NC(=O)[C@@H](NC(=O)[C@H](CO)NC(=O)[C@H](Cc1ccc(O)cc1)NC(=O)[C@H](CC(=O)O)NC(=O)[C@H](CO)NC(=O)[C@@H](NC(=O)[C@](C)(Cc1ccccc1)NC(=O)[C@@H](NC(=O)CNC(=O)[C@H](CCC(=O)O)NC(=O)C(C)(C)NC(=O)[C@@H](N)Cc1ccc(O)cc1)[C@@H](C)O)[C@@H](C)O)[C@@H](C)CC)[C@@H](C)CC)C(=O)N[C@@H](CCC(=O)O)C(=O)NCC(=O)NCC(N)=O [Example 98] (H-Y[Aib]EGT[αMeF]TSDYSILLDKK([AEEA-AEEA-γGlu-C20 diacid])AQ[Aib]AFIEYLIEGG-NH2) | 0.157 | 0.0718
